Test results: article PMC11353420, “Anti-Inflammatory, Cytotoxic, and Genotoxic Effects of Soybean Oligopeptides Conjugated with Mannose” (Foods, 2024)

Assays:
[1] = SRB cytotoxicity assay, HepG2; assay type: cell-based, human; conditions: human, HepG2 cells; HepG2, 48 h, SRB
Description: (§1) HEK293 (Human embryonic kidney cell line), HepG2 (Human liver carcinoma cell line), LX-2 (Human hepatic stellate cell line), and 3T3-L1 (Murine preadipocyte cell line) cells were obtained from the American Type Culture Collection (ATCC), Bethesda, MD, USA.

[2] = tested on: HepG2 (Human liver carcinoma cell line); assay: SRB cytotoxicity assay, HepG2; assay type: cell-based
Description: as §1

[3] = SRB cytotoxicity assay, HEK293; assay type: cell-based, human; conditions: human, HEK293 cells; HEK293, 48 h, SRB
Description: as §1

[4] = tested on: HEK293 (Human embryonic kidney cell line); assay: SRB cytotoxicity assay, HEK293; assay type: cell-based
Description: as §1

[5] = SRB cytotoxicity assay, 3T3-L1 pre-adipocyte; assay type: cell-based, murine; conditions: mouse, 3T3-L1 pre-adipocytes; 3T3-L1 Pre-adipocyte, 48 h, SRB
Description: as §1

3T3-L1 Pre-adipocyte = assay: SRB cytotoxicity assay, 3T3-L1 pre-adipocyte; assay type: cell-based, murine; conditions: 48 h
Description: as §1

[6] = SRB cytotoxicity assay, 3T3-L1 mature adipocytes; assay type: cell-based, murine; conditions: mouse; 3T3-L1 Mature-adipocytes, 48 h, SRB
Procedure: The pre-adipocyte 3T3-L1 cell line was differentiated to become mature adipocytes by culturing the cells to 100% confluence in 10% calf serum DMEM (CS medium), as Day 0 in a 96 well-plate. After post-confluence, the cells were incubated with the induction medium as a differentiation initiation medium (DMEM […] 1 μM DEX, 0.5 mM IBMX, 167 nM insulin, and 10% FBS) for 3 days (Days 1–3). After that, cells were cultured in a differentiation medium as an adipogenic differentiation medium (differentiation media: DMEM containing 167 nM insulin and 10% FBS) for 3 days (Days 4–6). Finally, maturation was induced in an induced-lipid accumulation medium (maturation media: DMEM containing 167 nM insulin and 10% FBS) for 6 days (Days 7–12). The mature adipocytes were then used for toxicity testing.
The cytotoxicity of the oligopeptide and its conjugated forms on HepG2, HEK293, LX-2, and RAW 264.7 cells, pre- and mature 3T3-L1 adipocytes, and hPBMCs was analyzed by a sulforhodamine (SRB) assay to obtain their non-toxic concentration for further experiments and as screening data for their in vitro safety. The cells were plated for 12 h in 96-well plates and then treated with the oligopeptide and its conjugated sugar at a concentration of 0–1000 µg/mL for 48 h. Dimethyl sulfoxide (DMSO) was used as a vehicle control (the untreated control). At the indicated time, the cells were then fixed and subjected to an SRB assay. The absorbance was measured at 510 nm by spectrophotometry (Gen5, BioTek, Winooski, VT, USA), and the cell viability was calculated as the ratio of the treatment versus untreated control. The data are represented as the mean ± standard deviation of three replicates and are expressed relative to the untreated control. The percentage of cell survival was calculated as follows:% cell survival = (Abs_extract/Abs_control) × 100

Hemolysis assay = assay type: cell-based, human; conditions: human, 5% red blood cell suspension; 800 µg/mL, 5% RBCs, 37 °C, 3 h; read-out: % Hemolysis (n = 5)
Description: As described by Karinchai et al., human peripheral blood mononuclear cells (PBMCs) and red blood cells (RBCs) were isolated from human blood samples [41]. Human blood samples of healthy subjects obtained from Maharaj Hospital, Chiang Mai, Thailand, were anonymized and kept in a heparinized tube by the laboratory. RBCs were collected and used to determined hemolysis induction by a hemolysis assay. Ficoll-Hypaque solution was used to isolate PBMCs, as described in the manufacturer’s instructions. A certificate of exemption by the Research Ethics Committee of the Faculty of Medicine, Chiang Mai University (No. EXEMPTION 8989/2022), was granted. Consent to participate was not applicable as all data were anonymized. All methods were carried out in accordance with relevant guidelines and regulations.
The hemolytic effect of the oligopeptide and its conjugated forms was determined by hemolysis assay. Briefly, the 5% RBCs suspension was mixed with various concentrations of the samples and further incubated at 37 °C for 3 h. The hemolysis induction by the compounds was measured as described previously. The hemolytic effect of each compound was interpreted using the following guidelines: 0–10% hemolysis is non-hemolysis, 10–25% hemolysis is slight hemolysis induction, and >25% hemolysis is high hemolysis induction.

[7] = tested on: NO production in LPS-treated RAW 264.7 macrophages; assay: LPS-induced nitric oxide (NO)/nitrite production, Griess reaction; assay type: cell-based, murine; conditions: 100, 200, 400 µg/mL pretreatment 1 h, LPS 1 µg/mL 24 h
Procedure: To screen the anti-inflammation ability of the compounds, the nitrite level in the cultured medium of the treated cells was determined by the Griess reaction. RAW 264.7 macrophage cells were pretreated with various concentrations of the oligopeptide and its conjugated forms (100, 200, 400 µg/mL) for an hour and then incubated with LPS (1 µg/mL) for further 24 h at 37 °C in a 5% CO2 humidified atmosphere. The culture supernatant was collected for the Griess reagent assay as previous described. The NO production was calculated by comparison with LPS-treated controls.

[8] = tested on: Salmonella typhimurium strain TA100; assay: Salmonella mutation assay (Ames test), TA100; assay type: cell-based
Procedure: (§2) Overnight bacterial cultures were mixed with various doses of test compounds with (+S9) or without (−S9) and incubated at 37 °C for 20 min. The top agar was added and then poured onto a plate of minimal glucose agar. The plates were incubated at 37 °C for 48 h. The number of revertant colonies was counted and the mutagenic index (MI) was calculated. 2-aminoanthracene (2-AA) and 2-(2-furyl)-3-(5-nitro-2-furyl)-acrylamide (AF-2) were used as positive mutagens in the presence and absence of S9.

[9] = tested on: Salmonella typhimurium strain TA98; assay: Salmonella mutation assay (Ames test), TA98; assay type: cell-based
Procedure: as §2

## OC[C@H]1OC(O)[C@@H](O)[C@@H](O)[C@@H]1O (stereo partly drawn) [Man, D-mannose]
[1]
  IC20 at 48 h: > 1000 µg/mL
[2]; HepG2, up to 1000 µg/mL, 48 h
  toxicity to cells: not toxic
[2]; Homo sapiens, HepG2, 48 h, SRB, read-out: IC50
  IC50: > 1000 µg/mL
[3]
  IC20 at 48 h: > 1000 µg/mL
[4]; HEK293, up to 1000 µg/mL, 48 h
  toxicity to cells: not toxic
[4]; Homo sapiens, HEK293, 48 h, SRB, read-out: IC50
  IC50: > 1000 µg/mL
[5]
  IC20 at 48 h: > 1000 µg/mL
3T3-L1 Pre-adipocyte; Mus musculus, 3T3-L1 Pre-adipocyte, SRB, read-out: IC50
  IC50: > 1000 µg/mL
3T3-L1 Pre-adipocyte; pre-3T3-L1, up to 1000 µg/mL
  toxicity to cells: not toxic
[6]
  IC20 at 48 h: > 1000 µg/mL
Hemolysis assay
  hemolysis at 3 h, 800 µg/mL: 1.84 ± 0.42%
[7]
  inhibition of LPS-induced NO production: did not inhibit
[8]; TA100, +S9, 0.04 mg per plate
  His^+ Revertant Colonies per Plate: 127.5 ± 2.5
[8]; TA100, +S9, 0.2 mg per plate
  His^+ Revertant Colonies per Plate: 140.3 ± 2.3
[8]; TA100, +S9, 1 mg per plate
  His^+ Revertant Colonies per Plate: 139.0 ± 0.7
[8]; TA100, +S9, 5 mg per plate
  His^+ Revertant Colonies per Plate: 138.5 ± 4.2
[8]; TA100, presence and absence of the S9 mix
  mutagenicity: did not cause any mutagenicity
[8]; TA100, −S9, 0.04 mg per plate
  His^+ Revertant Colonies per Plate: 135.2 ± 5.2
[8]; TA100, −S9, 0.2 mg per plate
  His^+ Revertant Colonies per Plate: 137.5 ± 4.5
[8]; TA100, −S9, 1 mg per plate
  His^+ Revertant Colonies per Plate: 135.2 ± 4.5
[8]; TA100, −S9, 5 mg per plate
  His^+ Revertant Colonies per Plate: 129.7 ± 4.7
[9]; TA98, +S9, 0.04 mg per plate
  His^+ Revertant Colonies per Plate: 37.7 ± 5.7
[9]; TA98, +S9, 0.2 mg per plate
  His^+ Revertant Colonies per Plate: 37.8 ± 3.8
[9]; TA98, +S9, 1 mg per plate
  His^+ Revertant Colonies per Plate: 36.5 ± 7.5
[9]; TA98, +S9, 5 mg per plate
  His^+ Revertant Colonies per Plate: 38.5 ± 7.8
[9]; TA98, presence and absence of the S9 mix
  mutagenicity: did not cause any mutagenicity
[9]; TA98, −S9, 0.04 mg per plate
  His^+ Revertant Colonies per Plate: 30.5 ± 2.5
[9]; TA98, −S9, 0.2 mg per plate
  His^+ Revertant Colonies per Plate: 30.8 ± 4.8
[9]; TA98, −S9, 1 mg per plate
  His^+ Revertant Colonies per Plate: 27.8 ± 6.5
[9]; TA98, −S9, 5 mg per plate
  His^+ Revertant Colonies per Plate: 28.7 ± 6.0
